Test results reported in patent US9688710B2, “Inhibitors of sodium glucose cotransporter 1” (LEXICON PHARMACEUTICALS, INC., priority 2012, dated 2017).
pIC50: −log10 of the molar value.

Experiments:
[1] = target: Human sodium/glucose co-transporter type 1 (SGLT1) (Homo sapiens (Human), UniProt P13866); assay: In vitro human SGLT1 inhibition assay (14C-AMG uptake); assay type: cell-based; conditions: HEK293 cells expressing human HA-SGLT1, 14C-AMG uptake
Outline: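 Uptake of 14C-AMG (100 nCi) was measured by scintillation counting after 1–2 h at 37 °C, 5% CO2, with or without compound. The buffer was pH 7.3 with 140 mM NaCl, 1 mM CaCl2, 1 mM MgCl2 and 1 mg/mL BSA. Cells were a stable HEK293 line carrying HA-SGLT1 (human), plated overnight at 30,000 per well.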

[2] = target: Human sodium/glucose co-transporter type 2 (SGLT2) (Homo sapiens (Human), UniProt P31639); assay: In vitro human SGLT2 inhibition assay (14C-AMG uptake); assay type: cell-based; conditions: HEK293 cells expressing human HA-SGLT2, 14C-AMG uptake
Human sodium/glucose co-transporter type 2 (SGLT2), sequence (P31639 whole entry): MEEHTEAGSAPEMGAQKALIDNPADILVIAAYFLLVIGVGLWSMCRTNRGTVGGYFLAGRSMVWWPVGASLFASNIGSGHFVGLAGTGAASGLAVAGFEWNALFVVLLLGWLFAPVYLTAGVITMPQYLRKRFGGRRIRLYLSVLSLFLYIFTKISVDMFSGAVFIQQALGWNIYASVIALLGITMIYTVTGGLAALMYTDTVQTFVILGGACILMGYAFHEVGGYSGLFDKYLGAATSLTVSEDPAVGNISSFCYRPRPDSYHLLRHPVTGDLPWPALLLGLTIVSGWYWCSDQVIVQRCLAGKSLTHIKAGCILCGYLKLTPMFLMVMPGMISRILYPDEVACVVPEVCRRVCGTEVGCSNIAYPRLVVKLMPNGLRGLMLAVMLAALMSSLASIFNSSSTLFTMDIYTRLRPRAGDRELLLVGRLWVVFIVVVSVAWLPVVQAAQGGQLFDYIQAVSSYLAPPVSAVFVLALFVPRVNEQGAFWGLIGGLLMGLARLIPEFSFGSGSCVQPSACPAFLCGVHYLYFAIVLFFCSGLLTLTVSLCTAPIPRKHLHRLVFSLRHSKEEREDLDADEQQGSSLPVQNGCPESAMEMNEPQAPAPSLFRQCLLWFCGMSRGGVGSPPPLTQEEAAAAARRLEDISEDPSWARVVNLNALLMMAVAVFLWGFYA
Outline: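 Uptake of 14C-AMG (100 nCi) was followed in a stable HEK293 HA-SGLT2 line over 1-2 h at 37 °C with or without compound. Buffer: 140 mM NaCl, 10 mM HEPES, 5 mM Tris, 1 mg/mL BSA, pH 7.3. Readout was scintillation counting after washing.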

KKay mice [3] = assay: Glucose challenge in KKAy diabetic mice (glucose excursion); assay type: in vivo; conditions: KKay mice on 45% high fat diet, 1.5 and 4.5 mg/kg once daily, day 22, glucose bolus 2 g/kg 15 hours after dosing
Text: (§1) Twelve week-old male KKay mice were purchased from The Jackson Laboratory (Bar Harbor, Me.). They were switched to 45% high fat diet (HFD; diet D12451i, Research Diets) and housed individually for one week before study. The mice were randomized into the following groups by their HbA1c levels and body weights:
(§2) Mice received either vehicle or Compound C once daily at […] for 36 days. Body weight and food consumption were monitored daily. On day 22, blood was collected before glucose challenge for baseline glucose. Mice were then given a bolus dose of glucose (2 g/kg, 10 mL/kg). Blood was collected at 30, 60 and 120 minutes after glucose challenge to estimate the glucose excursion. Blood glucose was analyzed by Cobas Integra 400 Autoanalyzer (Roche Diagnostics).

KKay mice [4] = assay: HbA1c in KKAy diabetic mice; assay type: in vivo; conditions: 1.5 and 4.5 mg/kg once daily, day 26
Text: as §1, §2
On day 26 after dosing, blood was collected for HbA1c. HbA1c was measured using a meter manufactured by Bayer according to the protocol recommended by Bayer.

KKay mice [5] = assay: Postprandial tGLP-1 in KKAy diabetic mice; assay type: in vivo; conditions: 4.5 mpk group, day 29, 60 minutes after glucose bolus 2 g/kg
Text: as §1, §2
On day 29, the mice again received a glucose bolus (2 g/kg, 10 mL/kg). Blood was collected at 60 minutes after glucose challenge and analyzed for tGLP-1. Plasma was prepared by centrifuging blood samples at 1000 rpm for 10 minutes at 4° C. tGPL-1 was analyzed by ELISA (Glucagon-Like Peptide-1 Total ELISA Kit, catalog #EZGLP1T-36K, Millipore, St. Charles, Mo.) according to the protocol recommended by Millipore.

Human sodium/glucose co-transporter type 1 (SGLT1), sequence (P13866 whole entry): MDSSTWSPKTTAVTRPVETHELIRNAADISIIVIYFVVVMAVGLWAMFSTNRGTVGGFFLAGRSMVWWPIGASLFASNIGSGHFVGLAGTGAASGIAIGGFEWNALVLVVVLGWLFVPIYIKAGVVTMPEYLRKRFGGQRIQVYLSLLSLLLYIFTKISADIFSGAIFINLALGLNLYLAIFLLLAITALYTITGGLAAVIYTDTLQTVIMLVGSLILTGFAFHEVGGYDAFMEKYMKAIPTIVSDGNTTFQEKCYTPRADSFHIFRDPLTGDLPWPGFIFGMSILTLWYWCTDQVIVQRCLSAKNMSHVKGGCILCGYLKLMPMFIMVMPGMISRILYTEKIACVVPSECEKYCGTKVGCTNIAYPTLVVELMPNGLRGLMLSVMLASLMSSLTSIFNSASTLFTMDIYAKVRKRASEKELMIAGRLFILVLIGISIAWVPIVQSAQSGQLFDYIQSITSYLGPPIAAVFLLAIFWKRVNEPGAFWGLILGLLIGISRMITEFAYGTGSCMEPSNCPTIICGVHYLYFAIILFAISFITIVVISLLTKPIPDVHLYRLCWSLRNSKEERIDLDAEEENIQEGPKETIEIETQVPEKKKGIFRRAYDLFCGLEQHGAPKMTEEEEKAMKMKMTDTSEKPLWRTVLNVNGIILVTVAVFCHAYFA

Row | Compound | pIC50 [1] | pIC50 [2] | glucose excursion after glucose challenge (KKay mice [3]) | HbA1c (KKay mice [4]) | postprandial tGLP-1 (KKay mice [5])
1 | CS[C@H]1O[C@@H](c2ccc(C)c(Cc3ccc(OCCCNC(C)(C)CO)cc3)c2)[C@H](O)[C@@H](O)[C@@H]1O [(2S,3R,4R,5S,6R)-2-(3-(4-(3-((1-hydroxy-2-methylpropan-2-yl)amino)propoxy)benzyl)-4-methylphenyl)-6-(methylthio)tetrahydro-2H-pyran-3,4,5-triol] | > 8.00 | > 8.00 | dose-dependent decrease in glucose excursion | significant, dose-dependent reduction in HbA1c | significant increase in postprandial tGLP-1
2 | CS[C@H]1O[C@@H](c2ccc(C)c(Cc3ccc(CCCC(=O)NC(C)(C)C(=O)NC4CCN(C(=O)OC(C)(C)C)CC4)cc3)c2)[C@H](O)[C@@H](O)[C@@H]1O [tert-butyl 4-(2-methyl-2-(4-(4-(2-methyl-5-((2S,3R,4R,5S,6R)-3,4,5-trihydroxy-6-(methylthio)tetrahydro-2H-pyran-2-yl)benzyl)phenyl)butanamido)propanamido)piperidine-1-carboxylate] | > 8.00 | > 8.00 |  |  | 
3 | CS[C@H]1O[C@@H](c2ccc(C)c(Cc3ccc(CCCC(=O)NC(C)(C)C(=O)N4CCN(C(=O)OC(C)(C)C)CC4)cc3)c2)[C@H](O)[C@@H](O)[C@@H]1O [tert-butyl 4-(2-methyl-2-(4-(4-(2-methyl-5-((2S,3R,4R,5S,6R)-3,4,5-trihydroxy-6-(methylthio)tetrahydro-2H-pyran-2-yl)benzyl)phenyl)butanamido)propanoyl)piperazine-1-carboxylate] | > 8.00 | > 8.00 |  |  | 
4 | CS[C@H]1O[C@@H](c2ccc(C)c(Cc3ccc(CCCC(=O)NC(C)(C)C(=O)N4CCC(NC(=O)OC(C)(C)C)CC4)cc3)c2)[C@H](O)[C@@H](O)[C@@H]1O [tert-butyl (1-(2-methyl-2-(4-(4-(2-methyl-5-((2S,3R,4R,5S,6R)-3,4,5-trihydroxy-6-(methylthio)tetrahydro-2H-pyran-2-yl)benzyl)phenyl)butanamido)propanoyl)piperidin-4-yl)carbamate] | > 8.00 | > 8.00 |  |  | 
5 | CS[C@H]1O[C@@H](c2ccc(Cl)c(Cc3ccc(OCCNC(=O)OC(C)(C)C)cc3)c2)[C@H](O)[C@@H](O)[C@@H]1O [tert-butyl (2-(4-(2-chloro-5-((2S,3R,4R,5S,6R)-3,4,5-trihydroxy-6-(methylthio)tetrahydro-2H-pyran-2-yl)benzyl)phenoxy)ethyl)carbamate] | > 7.00 | > 8.00 |  |  | 
